The source of these data is patent US9586958B2, “Prodrug derivatives of substituted triazolopyridines” (BAYER PHARMA AKTIENGESELLSCHAFT, priority 2013, dated 2017).

SMILES strings stand for the structures. Where two headings read alike, the source gives them in different places.

Data set [1] is described as follows: Metabolic stability in vitro, dog liver microsomes (calculation of Fmax). It is filed as in vitro ADME. The procedure: (§1) The metabolic stability of test compounds in vitro was determined by incubating them at 1 μM with a suspension liver microsomes in 100 mM phosphate buffer, pH7.4 (NaH2PO4×H2O+Na2HPO4×2H2O) at a protein concentration of 0.5 mg/mL and at 37° C. The reaction was activated by adding a co-factor mix containing 1.2 mg NADP, 3 IU glucose-6-phosphate dehydrogenase, 14.6 mg glucose-6-phosphate and 4.9 mg MgCl2 in phosphate buffer, pH 7.4. Organic solvent in the incubations was limited to <0.2% dimethylsulfoxide (DMSO) and <1% methanol. During incubation, the microsomal suspensions were continuously shaken and aliquots were taken at 2, 8, 16, 30, 45 and 60 min, to which equal volumes of cold methanol were immediately added. Samples were frozen at −20° C. over night, subsequently centrifuged for 15 minutes at 3000 rpm and the supernatant was analyzed with an Agilent 1200 HPLC-system with LCMS/MS detection.
(§2) The half-life of a test compound was determined from the concentration-time plot. From the half-life the intrinsic clearances were calculated. Together with the additional parameters liver blood flow, specific liver weight and microsomal protein content the hepatic in vivo blood clearance (CL) and the maximal oral bioavailability (Fmax) were calculated for the different species. The following parameter values were used: Liver blood flow—1.3 L/h/kg (human), 2.1 L/h/kg (dog), 4.2 L/h/kg (rat); specific liver weight—21 g/kg (human), 39 g/kg (dog), 32 g/kg (rat); microsomal protein content—40 mg/g.
(§3) With the described assay only phase-I metabolism of microsomes is reflected, e.g. typically oxidoreductive reactions by cytochrome P450 enzymes and flavin mono-oxygenases (FMO) and hydrolytic reactions by esterases (esters and amides).

Data set [2] in a line: Metabolic stability in vitro, human liver microsomes (calculation of Fmax). It is filed as in vitro ADME. Particulars: for Human liver microsomes; Fmax [%]: 1 μM; for calculated maximal oral bioavailability (Fmax) at 1 μM: pH 7.4, determined by means of human liver microsomes, read-out: maximum oral bioavailability (Fmax) in human. The procedure: as §1, §2, §3
In data set [3] the test system is HeLa-MaTu-ADR, multidrug-resistant human cervical carcinoma cells. Kind of data set: Proliferation assay, HeLa-MaTu-ADR cells (crystal violet). Particulars: read-out: IC50 determined in a HeLa-MaTu-ADR cell proliferation assay. It is filed as cell-based. The procedure:
(§4) Cultivated tumor cells (MCF7, hormone dependent human mammary carcinoma cells, ATCC HTB22; NCI-H460, human non-small cell lung carcinoma cells, ATCC HTB-177; DU 145, hormone-independent human prostate carcinoma cells, ATCC HTB-81; HeLa-MaTu, human cervical carcinoma cells, EPO-GmbH, Berlin; HeLa-MaTu-ADR, multidrug-resistant human cervical carcinoma cells, EPO-GmbH, Berlin; HeLa human cervical tumor cells, ATCC CCL-2; B16F10 mouse melanoma cells, ATCC CRL-6475) were plated at a density of 5000 cells/well (MCF7, DU145, HeLa-MaTu-ADR), 3000 cells/well (NCI-H460, HeLa-MaTu, HeLa), or 1000 cells/well (B16F10) in a 96-well multititer plate in 200 μl of their respective growth medium supplemented 10% fetal calf serum. After 24 hours, the cells of one plate (zero-point plate) were stained with crystal violet (see below), while the medium of the other plates was replaced by fresh culture medium (200 μl), to which the test substances were added in various concentrations (0 μM, as well as in the range of 0.01-30 μM; the final concentration of the solvent dimethyl sulfoxide was 0.5%). The cells were incubated for 4 days in the presence of test substances. Cell proliferation was determined by staining the cells with crystal violet: the cells were fixed by adding 20 μl/measuring point of an 11% glutaric aldehyde solution for 15 minutes at room temperature. After three washing cycles of the fixed cells with water, the plates were dried at room temperature. The cells were stained by adding 100 μl/measuring point of a 0.1% crystal violet solution (pH 3.0). After three washing cycles of the stained cells with water, the plates were dried at room temperature. The dye was dissolved by adding 100 μl/measuring point of a 10% acetic acid solution. The extinction was determined by photometry at a wavelength of 595 nm. The change of cell number, in percent, was calculated by normalization of the measured values to the extinction values of the zero-point plate (=0%) and the extinction of the untreated (0 μm) cells (=100%). The IC50 values were determined by means of a 4 parameter fit.

Data set [4] in a line: Metabolic stability in vitro, rat liver microsomes (calculation of Fmax). The data set is classed as in vitro ADME. The method, then: as §1, §2, §3
Data set [5] has as its system HeLa human cervical tumor cells. Kind of data set: Proliferation assay, HeLa cells (crystal violet). The data set is classed as cell-based. The method, then: as §4
Data set [6] can be described thus: Solubility of compound A1 at 25° C. in different solvents. It is filed as physicochemical.
A further data set concerns the target T1, human kinase Mps-1 (Homo sapiens, UniProt P33981).
T1 construct: N-terminally GST-tagged human full length recombinant Mps-1 kinase; GST (N); purchased Invitrogen, Karslruhe, Germany PV4071
T1 sequence (P33981 1-857): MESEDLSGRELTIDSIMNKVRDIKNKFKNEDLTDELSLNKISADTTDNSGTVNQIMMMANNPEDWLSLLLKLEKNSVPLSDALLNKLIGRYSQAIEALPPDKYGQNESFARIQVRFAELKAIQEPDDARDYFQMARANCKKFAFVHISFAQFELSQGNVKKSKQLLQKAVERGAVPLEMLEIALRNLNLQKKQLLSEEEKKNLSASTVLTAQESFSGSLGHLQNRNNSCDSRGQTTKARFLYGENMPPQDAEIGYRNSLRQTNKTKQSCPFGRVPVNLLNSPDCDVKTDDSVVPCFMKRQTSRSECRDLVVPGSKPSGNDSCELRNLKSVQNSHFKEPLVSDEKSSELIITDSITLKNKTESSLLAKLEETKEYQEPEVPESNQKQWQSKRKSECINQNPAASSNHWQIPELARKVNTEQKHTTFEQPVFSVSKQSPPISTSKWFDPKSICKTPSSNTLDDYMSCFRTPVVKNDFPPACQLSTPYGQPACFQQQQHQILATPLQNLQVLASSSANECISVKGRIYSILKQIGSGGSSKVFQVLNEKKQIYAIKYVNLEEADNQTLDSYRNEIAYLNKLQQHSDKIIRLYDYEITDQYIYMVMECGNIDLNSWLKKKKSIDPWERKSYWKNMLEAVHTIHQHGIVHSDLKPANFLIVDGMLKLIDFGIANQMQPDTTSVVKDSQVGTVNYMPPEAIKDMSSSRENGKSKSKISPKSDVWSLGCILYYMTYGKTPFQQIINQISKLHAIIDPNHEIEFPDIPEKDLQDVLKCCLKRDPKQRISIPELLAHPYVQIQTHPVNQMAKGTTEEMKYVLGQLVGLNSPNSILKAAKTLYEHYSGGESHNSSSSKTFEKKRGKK
Kind of data set: Mps-1 kinase assay (TR-FRET) with 10 μM ATP. The data set is classed as biochemical. Particulars: Mps-1 Inhibition, IC50 (Assay with 10 μM ATP), comparison table with comparative examples.

Setting [7] is: comparison table with comparative examples.
[8] abbreviates: HeLa, comparison table with comparative examples, read-out: Inhibition of cell proli-feration, cell line: HeLa, IC50.

Regarding `COc1cc(S(C)(=O)=O)ccc1Nc1nc2ccc(-c3ccc(NC(=O)[C@H](C)c4ccc(F)cc4)cc3)cn2n1` [Compound A1, (2R)-2-(4-fluorophenyl)-N-[4-(2-{[2-methoxy-4-(methylsulfonyl)phenyl]-amino}[1,2,4]triazolo[1,5-α]pyridin-6-yl)phenyl]propanamide], the “Dog liver microsomes; Fmax [%]” value in data set [1] (setting [7]) is 64%; in data set [1] (dog liver microsomes, 1 μM) it was 64%. Further, the “Human liver microsomes; Fmax [%]” value in data set [2] was 92%. In addition, in data set [2], the calculated maximal oral bioavailability (Fmax) at 1 μM was > 60%. Besides, the IC50 was < 10 µM in data set [3]; < 0.4 µM in data set [5] (96 h, HeLa cells, 4 days, read-out: Inhibition of cell proliferation, cell Line: HeLa IC50); < 0.4 µM in data set [5] (setting [8]); < 0.4 µM in data set [5] (HeLa, read-out: IC50 in a HeLa cell proliferation assay). Moreover, the “Rat liver microsomes; Fmax [%]” value in data set [4] (setting [7]) is reported as 92%; in data set [4] (rat liver microsomes, 1 μM) it was 92%. The “dissolved amount in mg/100 mL solution” value in data set [6] (0.1M HCl in water) is <0.1 mg/100 mL; in data set [6] (aqueous solution, acetate buffer pH 4.5), <0.1 mg/100 mL; in data set [6] (aqueous solution, phopshate buffer pH 7) it was <0.1 mg/100 mL; in data set [6] (aqueous solution, phopshate buffer pH 8), <0.1 mg/100 mL; in data set [6] (solvent acetone), 1518.3 mg/100 mL; in data set [6] (solvent acetonitrile) it was 350.2 mg/100 mL. In addition, the “dissolved amount in mg/100 mL solution” value was 45.7 mg/100 mL in data set [6] (solvent ethanol) and <0.1 mg/100 mL in data set [6] (solvent water).

In the case of `COc1cc(C(=O)N2CC(F)C2)ccc1Nc1nc2ccc(-c3ccc(NC(=O)[C@H](C)c4ccc(F)cc4)cc3)cn2n1` [Compound A3, (2R)-N-{4-[2-({4-[(3-fluoroazetidin-1-yl)carbonyl]-2-methoxyphenyl}amino)-[1,2,4]triazolo[1,5-α]pyridin-6-yl]phenyl}-2-(4-fluorophenyl)propanamide], the “Dog liver microsomes; Fmax [%]” value is on record as 86% in data set [1] (setting [7]) and 86% in data set [1] (dog liver microsomes, 1 μM). The “Human liver microsomes; Fmax [%]” value in data set [2] was >95%. The calculated maximal oral bioavailability (Fmax) at 1 μM in data set [2] was > 60%. The IC50 in data set [3] was < 10 µM. In addition, the “Rat liver microsomes; Fmax [%]” value in data set [4] (setting [7]) is recorded as 83%; in data set [4] (rat liver microsomes, 1 μM) it was 83%.

Take `N#Cc1c(F)cccc1Nc1nc2ccc(-c3ccc(NC(=O)Cc4ccc(F)cc4)cc3)cn2n1` [reference compound]: the “Dog liver microsomes; Fmax [%]” value in data set [1] (setting [7]) was 15%.

Turning to `COc1ccccc1Nc1nc2ccc(-c3ccc(NC(=O)Cc4ccccc4)cc3)cn2n1` [reference compound], the “Rat liver microsomes; Fmax [%]” value in data set [4] (setting [7]) is recorded as 40%.

Take `N#Cc1ccccc1Nc1nc2ccc(-c3ccc(NC(=O)Cc4ccc(F)cc4)cc3)cn2n1` [reference compound]: the “Rat liver microsomes; Fmax [%]” value in data set [4] (setting [7]) is given as 40%.

Regarding `COC(C(=O)Nc1ccc(-c2ccc3nc(Nc4ccccc4C#N)nn3c2)cc1)c1ccccc1` (centres unmarked) [reference compound], in data set [4] (setting [7]), the “Rat liver microsomes; Fmax [%]” value is 19%.

For `N#Cc1ccccc1Nc1nc2ccc(-c3ccc(NC(=O)C(F)(F)c4ccccc4)cc3)cn2n1` [reference compound], the “Rat liver microsomes; Fmax [%]” value in data set [4] (setting [7]) is 27%.

Take `N#Cc1ccccc1Nc1nc2ccc(-c3ccc(NC(=O)C(F)c4ccccc4)cc3)cn2n1` (centres unmarked) [reference compound]: the “Rat liver microsomes; Fmax [%]” value in data set [4] (setting [7]) is 26%.

On to `COc1cc(C(=O)N2CCOCC2)ccc1Nc1nc2ccc(-c3ccc(NC(=O)Cc4ccc(F)cc4)cc3)cn2n1` [reference compound], for which the “Rat liver microsomes; Fmax [%]” value in data set [4] (setting [7]) is 48%.

Take `CCOc1cc(S(C)(=O)=O)ccc1Nc1nc2ccc(-c3ccc(C(=O)NCc4ccc(F)cc4)c(C)c3)cn2n1` [reference compound]: in data set [1] (setting [7]), the “Dog liver microsomes; Fmax [%]” value is listed as 12%.

Turning to `COc1cc(C(=O)NCC(F)(F)F)ccc1Nc1nc2ccc(-c3ccc(NC(=O)Cc4ccc(F)cc4)cc3)cn2n1` [reference compound], the “Dog liver microsomes; Fmax [%]” value in data set [1] (setting [7]) is 40%.

Consider `COc1cc(N2CCOC2=O)ccc1Nc1nc2ccc(-c3ccc(NC(=O)Cc4ccc(F)cc4)cc3)cn2n1` [reference compound], for which, in data set [1] (setting [7]), the “Dog liver microsomes; Fmax [%]” value was 17%.

Consider `COc1cc(S(C)(=O)=O)ccc1Nc1nc2ccc(-c3ccc(NC(=O)Cc4ccc(F)cc4)cc3)cn2n1` [reference compound], for which the “Dog liver microsomes; Fmax [%]” value in data set [1] (setting [7]) was 10%.

`CS(=O)(=O)c1ccc(Nc2nc3ccc(-c4ccc(NC(=O)Cc5ccc(F)cc5)cc4)cn3n2)c(OCC(F)(F)F)c1` [reference compound]: in data set [1] (setting [7]), the “Dog liver microsomes; Fmax [%]” value is given as 25%.

As for `N#Cc1ccccc1Nc1nc2cnc(-c3ccc(NC(=O)Cc4ccc(F)cc4)cc3)cn2n1` [reference compound], the IC50 in data set [5] (setting [8]) came to 1.5 µM.

On to `N#Cc1ccccc1Nc1nc2ccc(-c3ccc(NC(=O)C4(c5ccccc5)CC4)cc3)cn2n1` [reference compound], for which the IC50 at human kinase Mps-1 was found to be 0.011 µM; in data set [5] (setting [8]) it was 1.4 µM.

On human kinase Mps-1, `NC(C(=O)Nc1ccc(-c2ccc3nc(Nc4ccccc4C(F)(F)F)nn3c2)cc1)c1ccccc1` (centres unmarked) [reference compound] had an IC50 of 0.013 µM.
